Experimental data taken from patent publication US8697868B2, “8-[3-amino-piperidin-1-yl]-xanthines, their preparation and their use as pharmaceutical compositions” (Boehringer Ingelheim International GmbH, priority 2004, dated 2014).

test system: not given; assay: not given; settings: not given

| melting point | Compound |
| --- | --- |
| 207 to 209 °C | CC#CCn1c(N2CCC[C@@H](N)C2)nc2c1c(=O)n(Cc1ccccc1)c(=O)n2C [Example 1(43), 1-benzyl-3-methyl-7-(2-butyn-1-yl)-8-((R)-3-amino-piperidin-1-yl)-xanthine] |
| 202 to 204 °C | CC#CCn1c(N2CCC[C@@H](N)C2)nc2c1c(=O)n(Cc1nc(C)cc(C)n1)c(=O)n2C [Example 1(82), 1-[(4,6-dimethyl-pyrimidin-2-yl)methyl]-3-methyl-7-(2-butyn-1-yl)-8-((R)-3-amino-piperidin-1-yl)-xanthine] |
| 166 °C | CC#CCn1c(N2CCC[C@@H](N)C2)nc2c1c(=O)n(Cc1cnccc1C#N)c(=O)n2C [Example 1(102), 1-[(4-cyano-pyridin-3-yl)methyl]-3-methyl-7-(2-butyn-1-yl)-8-((R)-3-amino-piperidin-1-yl)-xanthine] |

target: DPP-IV (Homo sapiens (Human), UniProt P27487); assay: DPP-IV assay with Caco-2 cell extract as DPP IV source; assay type: biochemical; settings: extract of human colon carcinoma cell line Caco-2 as DPP IV source; AFC substrate 100 μM; 60 minutes at ambient temperature; read-out: DPP IV inhibition IC50
Sequence (P27487 whole entry): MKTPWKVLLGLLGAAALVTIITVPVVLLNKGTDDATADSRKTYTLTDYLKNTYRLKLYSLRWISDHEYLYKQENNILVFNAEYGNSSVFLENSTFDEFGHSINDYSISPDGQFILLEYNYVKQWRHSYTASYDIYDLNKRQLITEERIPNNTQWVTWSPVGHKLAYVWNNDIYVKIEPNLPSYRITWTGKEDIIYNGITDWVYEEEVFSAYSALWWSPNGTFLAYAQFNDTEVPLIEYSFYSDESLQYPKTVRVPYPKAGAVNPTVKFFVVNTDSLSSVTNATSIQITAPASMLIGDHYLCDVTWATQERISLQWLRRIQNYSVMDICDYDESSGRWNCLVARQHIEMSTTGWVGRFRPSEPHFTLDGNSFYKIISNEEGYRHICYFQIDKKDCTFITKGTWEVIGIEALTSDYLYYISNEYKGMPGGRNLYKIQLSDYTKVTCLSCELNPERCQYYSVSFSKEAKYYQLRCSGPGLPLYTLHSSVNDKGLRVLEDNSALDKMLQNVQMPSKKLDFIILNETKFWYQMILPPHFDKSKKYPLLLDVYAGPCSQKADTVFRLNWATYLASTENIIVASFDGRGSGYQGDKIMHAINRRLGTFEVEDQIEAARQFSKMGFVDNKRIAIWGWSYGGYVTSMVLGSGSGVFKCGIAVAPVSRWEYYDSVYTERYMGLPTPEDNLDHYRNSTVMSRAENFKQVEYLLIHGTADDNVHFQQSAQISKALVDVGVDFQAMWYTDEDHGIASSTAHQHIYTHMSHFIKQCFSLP
Description: The differentiation of the cells in order to induce the DPP-IV expression was carried out in accordance with the description by Reiher et al. in an article entitled “Increased expression of intestinal cell line Caco-2” that appeared in Proc. Natl. Acad. Sci. Vol. 90, pp. 5757-5761 (1993). The cell extract was obtained from cells solubilized in a buffer (10 mM Tris HCl, 0.15 M NaCl, 0.04 t.i.u. aprotinin, 0.5% Nonidet-P40, pH 8.0) by centrifugation at 35,000 g for 30 minutes at 4° C. (to remove cell debris).
The DPP-IV assay was carried out as follows:
50 μl of substrate solution (AFC; AFC is amido-4-trifluoromethylcoumarin), final concentration 100 μM, was placed in black microtitre plates. 20 μl of assay buffer (final concentrations 50 mM Tris HCl pH 7.8, 50 mM NaCl, 1% DMSO) was pipetted therein. The reaction was started by the addition of 30 μl of solubilized Caco-2 protein (final concentration 0.14 μg of protein per well). The test substances under investigation were typically added prediluted to 20 μl, while the volume of assay buffer was then reduced accordingly. The reaction was carried out at ambient temperature, the incubation period was 60 minutes. Then the fluorescence was measured in a Victor 1420 Multilabel Counter, with the excitation wavelength at 405 nm and the emission wavelength at 535 nm. Dummy values (corresponding to 0% activity) were obtained in mixtures with no Caco-2 protein (volume replaced by assay buffer), control values (corresponding to 100% activity) were obtained in mixtures without any added substance. The potency of the test substances in question, expressed as IC50 values, were calculated from dosage/activity curves consisting of 11 measured points in each case.

| IC50 | Compound |
| --- | --- |
| 2 nM | CC#CCn1c(N2CCC[C@@H](N)C2)nc2c1c(=O)n(CC(=O)c1ccccc1-c1cccnc1)c(=O)n2C [1(21), 1-{2-oxo-2-[2-(pyridin-3-yl)-phenyl]-ethyl}-3-methyl-7-(2-butyn-1-yl)-8-((R)-3-amino-piperidin-1-yl)-xanthine] |
| 1 nM | CC#CCn1c(N2CCC[C@@H](N)C2)nc2c1c(=O)n(Cc1ccc3cncnc3c1)c(=O)n2C [1(38), 1-[(quinazolin-7-yl)methyl]-3-methyl-7-(2-butyn-1-yl)-8-((R)-3-amino-piperidin-1-yl)-xanthine] |
| 3 nM | CC#CCn1c(N2CCC[C@@H](N)C2)nc2c1c(=O)n(Cc1nccc(-c3ccccc3)n1)c(=O)n2C [1(31), 1-[(4-phenyl-pyrimidin-2-yl)methyl]-3-methyl-7-(2-butyn-1-yl)-8-((R)-3-amino-piperidin-1-yl)-xanthine] |
| 5 nM | CC#CCn1c(N2CCC[C@@H](N)C2)nc2c1c(=O)n(CC(=O)c1cccc(OC3CC3)c1)c(=O)n2C [1(7), 1-[2-(3-cyclopropyloxy-phenyl)-2-oxo-ethyl]-3-methyl-7-(2-butyn-1-yl)-8-((R)-3-amino-piperidin-1-yl)-xanthine] |
| 6 nM | CC#CCn1c(N2CCC[C@@H](N)C2)nc2c1c(=O)n(Cc1cc(C#N)cc3ccccc13)c(=O)n2C [1(3), 1-[(3-cyano-naphthalen-1-yl)methyl]-3-methyl-7-(2-butyn-1-yl)-8-((R)-3-amino-piperidin-1-yl)-xanthine] |
| 2 nM | CC#CCn1c(N2CCC[C@@H](N)C2)nc2c1c(=O)n(Cc1ccccc1C#N)c(=O)n2C [1(39), 1-(2-cyano-benzyl)-3-methyl-7-(2-butyn-1-yl)-8-((R)-3-amino-piperidin-1-yl)-xanthine] |
| 6 nM | CC#CCn1c(N2CCCC(N)C2)nc2c1c(=O)n(Cc1nc(Nc3ccccc3)c3ccccc3n1)c(=O)n2C (stereo not shown) [Example 1, 1-[(4-phenylamino-quinazolin-2-yl)methyl]-3-methyl-7-(2-butyn-1-yl)-8-(3-amino-piperidin-1-yl)-xanthine] |
| 2 nM | CC#CCn1c(N2CCC[C@@H](N)C2)nc2c1c(=O)n(Cc1cc(C#N)c3ccccc3n1)c(=O)n2C [1(6), 1-[(4-cyano-quinolin-2-yl)methyl]-3-methyl-7-(2-butyn-1-yl)-8-((R)-3-amino-piperidin-1-yl)-xanthine] |
| 9 nM | CC#CCn1c(N2CCC[C@@H](N)C2)nc2c1c(=O)n(Cc1nc(-c3ccccc3)nc3ccccc13)c(=O)n2C [1(4), 1-[(2-phenyl-quinazolin-4-yl)methyl]-3-methyl-7-(2-butyn-1-yl)-8-((R)-3-amino-piperidin-1-yl)-xanthine] |
| 2 nM | CC#CCn1c(N2CCC[C@@H](N)C2)nc2c1c(=O)n(Cc1cnc3cccnc3c1)c(=O)n2C [1(26), 1-[([1,5]naphthyridin-3-yl)methyl]-3-methyl-7-(2-butyn-1-yl)-8-((R)-3-amino-piperidin-1-yl)-xanthine] |
| 2 nM | CC#CCn1c(N2CCC[C@@H](N)C2)nc2c1c(=O)n(Cc1ccc3nc(C)c(C)nc3c1)c(=O)n2C [1(12), 1-[(2,3-dimethyl-quinoxalin-6-yl)methyl]-3-methyl-7-(2-butyn-1-yl)-8-((R)-3-amino-piperidin-1-yl)-xanthine] |

| Compound | IC50 |
| --- | --- |
| CC#CCn1c(N2CCC[C@@H](N)C2)nc2c1c(=O)n(Cc1nc3ccccc3cc1C#N)c(=O)n2C [Example 1(30), 1-[(3-cyano-quinolin-2-yl)methyl]-3-methyl-7-(2-butyn-1-yl)-8-((R)-3-amino-piperidin-1-yl)-xanthine] | 2 nM |

test system: rats; assay: Tolerability after oral administration in rats; assay type: in vivo; settings: oral administration of 10 mg/kg

| Compound | toxic side effects |
| --- | --- |
| CC#CCn1c(N2CCC[C@@H](N)C2)nc2c1c(=O)n(Cc1nc3ccccc3cc1C#N)c(=O)n2C [Example 1(30), 1-[(3-cyano-quinolin-2-yl)methyl]-3-methyl-7-(2-butyn-1-yl)-8-((R)-3-amino-piperidin-1-yl)-xanthine] | no toxic side effects could be detected |
